Experimental data as given in US20240251785A1, “SMALL MOLECULE ANTAGONISTS AND AGONISTS OF ARTHROPOD KININ RECEPTORS FOR PEST CONTROL” (The Texas A&M University System, priority 2021, published 2024).
Like-named read-outs stand apart in the source and are kept apart here.

How the values were obtained:
[1] = tested on: vector-only (V/O) CHO-K1 cells; experiment: Dose-response dual-addition calcium fluorescence assay on vector-only cells; format: cell-based; details: for IC50: read-out: V/O antagonist IC50
[2] = tested on: R. microplus kinin receptor; experiment: High-throughput dual-addition calcium fluorescence screen on BMLK3 cells; format: cell-based, Rhipicephalus microplus; details: for antagonist Io (%): compound 2 μmol L^−1, 5 min, then FFFSWGa 500 nmol L^−1; for agonist NPA (%): compound 2 μmol L^−1, first addition, relative to FFFSWGa 500 nmol L^−1
[3] = target: recombinant tick kinin receptor (BMLK3) (Rhipicephalus microplus, UniProt Q9NHA4); experiment: Dose-response dual-addition calcium fluorescence assay on BMLK3 cells; format: cell-based; details: for validation mark in dose-response assay: Table 3; for EC50: read-out: BMLK3 EC50
[4] = V/O cells, second addition Rhimi-K-1 1 μmol L^−1
[5] = first addition, 20 concentrations 28 nM-25 μM
[6] = second addition Rhimi-K-1 1 μmol L^−1, read-out: BMLK3 IC50
[7] = virtual hit molecules, dual-addition assay, vector-only cell (V/O)
[8] = virtual hit molecules, dual-addition assay, recombinant tick kinin receptor (BMLK3) cells
[9] = virtual hit molecules, dual-addition assay, recombinant tick kinin receptor (BMLK3) cells, read-out: BMLK3 antagonist IC50

recombinant tick kinin receptor (BMLK3), sequence (Q9NHA4 entry or part of it): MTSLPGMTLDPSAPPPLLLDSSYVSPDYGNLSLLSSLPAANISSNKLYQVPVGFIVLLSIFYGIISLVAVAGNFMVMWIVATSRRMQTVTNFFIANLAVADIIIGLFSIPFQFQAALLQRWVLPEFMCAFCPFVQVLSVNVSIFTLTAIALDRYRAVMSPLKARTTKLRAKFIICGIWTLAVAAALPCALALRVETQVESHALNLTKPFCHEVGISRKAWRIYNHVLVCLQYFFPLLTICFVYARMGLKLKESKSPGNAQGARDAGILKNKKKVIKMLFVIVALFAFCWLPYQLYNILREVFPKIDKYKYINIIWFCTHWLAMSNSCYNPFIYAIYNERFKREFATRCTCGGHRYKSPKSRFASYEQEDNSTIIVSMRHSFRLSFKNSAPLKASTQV

SMILES | EC50 ([1]; V/O cells, first addition) | IC50 [1, 4] | antagonist Io (%) [2] | validation mark in dose-response assay [3] | EC50 [3, 5] | IC50 [3, 6] | agonist NPA (%) [2] | EC50 [1, 7] | IC50 [1, 7] | EC50 [3, 8] | IC50 [3, 9]
O=C(Cn1cnc2ccccc21)NCc1ccc(OCc2ccccc2)cc1 [SACC-0115325] | > 25 µM | > 25 µM | 83% | *** (molecules which are either off-target or of low activity (<25 μM)) | 0.299 µM | > 25 µM | – | – | – | – | –
Cc1cc(C(C)(C)C)cc(C)c1CSC(=N)N [SACC-0029825] | 5.46 µM | 9.81 µM | – | *** (molecules which are either off-target or of low activity (<25 μM)) | 6.95 µM | < 0.0285 µM | 70% | – | – | – | –
CCc1cc2c(NCc3ccco3)nc(C)nc2s1 [SACC-0047526] | – | – | – | – | – | – | – | > 25 µM | > 25 µM | > 25 µM | > 25 µM
CC1(C)CSC(=NCc2ccccc2)N1C(=O)Cc1noc2ccccc12 [SACC-0024181] | 8.1 µM | 6.27 µM | – | *** (molecules which are either off-target or of low activity (<25 μM)) | 9.01 µM | 0.252 µM | 48% | – | – | – | –
c1ccc(-c2csc3ncnc(Nc4ccc5c(c4)OCCO5)c23)cc1 [SACC-0011565] | – | – | – | – | – | – | – | > 25 µM | 1.22 µM | 0.0417 µM | > 25 µM
CCNc1nc(NCc2ccco2)c2ccccc2n1 [SACC-0055093] | 0.683 µM | 0.376 µM | – | *** (molecules which are either off-target or of low activity (<25 μM)) | 0.898 µM | 10.3 µM | 128% | – | – | – | –
CCCc1cc(-c2cc(O)n3nc(C)c(CC)c3n2)no1 [SACC-0048722] | < 0.0285 µM | 4.32 µM | 56% | *** (molecules which are either off-target or of low activity (<25 μM)) | 4.17 µM | > 25 µM | – | – | – | – | –
CC1=CC(=NNC(=S)NCc2ccccc2)CC1 [SACC-0029249] | – | – | – | – | – | – | – | > 25 µM | < 0.0285 µM | > 25 µM | 1.88 µM
C=CCn1cnnc1SCC1CC1(Cl)Cl (stereo not shown) [SACC-0063031] | 17 µM | 4.45 µM | 80% | *** (molecules which are either off-target or of low activity (<25 μM)) | 0.246 µM | 0.242 µM | – | – | – | – | –
CCOC(=O)c1[nH]c2ccc(Br)cc2c1N=C(C)N(C)C [SACC-0055903] | 3.68 µM | 2.63 µM | – | *** (molecules which are either off-target or of low activity (<25 μM)) | 6.76 µM | 6.02 µM | 75% | – | – | – | –
CCCC1=CC(=C2NNC(C)=C2c2ccc(C(=O)OCC)o2)C(O)=CC1=O [SACC-0048694] | 6.87 µM | 17.5 µM | 65% | *** (molecules which are either off-target or of low activity (<25 μM)) | 0.281 µM | > 25 µM | – | – | – | – | –
CC1=C(Cc2ccccc2)C(C)Nc2ccccc2N1 (stereo not shown) [SACC-0026915] | 1 µM | > 25 µM | – | *** (molecules which are either off-target or of low activity (<25 μM)) | 0.662 µM | 4.6 µM | 111% | – | – | – | –
CCOc1ccc(NC(=N)/N=c2/nc(C(F)(F)F)cc(C)[nH]2)cc1 [SACC-0060049] | 1.93 µM | 0.243 µM | – | *** (molecules which are either off-target or of low activity (<25 μM)) | 4.55 µM | > 25 µM | 104% | – | – | – | –
Cc1ccc(S(=O)(=O)Nc2nc(CN3CCCC3)nc3sc(C)c(C)c23)cc1 [SACC-0025777] | – | – | – | – | – | – | – | 1.57 µM | > 25 µM | > 25 µM | 0.106 µM
C=CCNC(=S)NNC1=CC[C@@H](c2ccccc2)CC1 [SACC-0010978] | – | – | – | – | – | – | – | 0.0677 µM | 12.2 µM | > 25 µM | 9.82 µM
Cc1nc(-c2ccc(CNc3ncnc4sccc34)o2)cs1 [SACC-0039825] | – | – | – | – | – | – | – | > 25 µM | 0.334 µM | < 0.0285 µM | 8.06 µM
COc1ccccc1NC(=O)c1cn(CCC#N)nc1-c1ccc(C)c(C)c1 [SACC-0095111] | > 25 µM | 7.33 µM | – | *** (molecules which are either off-target or of low activity (<25 μM)) | > 25 µM | 3.32 µM | 71% | – | – | – | –
COc1ccc(-c2nc(CN3CCN(C(=O)c4ccc5c(c4)NC(=O)[C@H](C)S5)CC3)cs2)cc1 [SACC-0088454] | > 25 µM | 14.4 µM | 57% | *** (molecules which are either off-target or of low activity (<25 μM)) | > 25 µM | > 25 µM | – | – | – | – | –
O=C(Nc1ccc(I)cc1)C(Cl)(Cl)Cl [SACC-0062945] | 0.0604 µM | 3.84 µM | – | *** (molecules which are either off-target or of low activity (<25 μM)) | < 0.0285 µM | 0.128 µM | 61% | – | – | – | –

SMILES | EC50 ([1]; V/O cells, first addition) | IC50 [1, 4] | antagonist Io (%) [2] | validation mark in dose-response assay [3] | EC50 [3, 5] | IC50 [3, 6] | agonist NPA (%) [2] | EC50 [1, 7] | IC50 [1, 7] | EC50 [3, 8] | IC50 [3, 9]
O=C(CSC1=NCCS1)c1ccc(Cl)cc1 [SACC-0064624] | > 25 µM | > 25 µM | 76% | *** (molecules which are either off-target or of low activity (<25 μM)) | 0.504 µM | 0.21 µM | – | – | – | – | –
Cc1cc(N=CN(C)C)c2ccccc2n1 [SACC-0068485] | 3.77 µM | 0.549 µM | 56% | *** (molecules which are either off-target or of low activity (<25 μM)) | 0.743 µM | 4.15 µM | – | – | – | – | –
CC(C)(C)c1ccc(C(=O)NNC(=S)NC(=O)c2cccnc2)cc1 [SACC-0015467] | 3.45 µM | 7.1 µM | – | *** (molecules which are either off-target or of low activity (<25 μM)) | 4.32 µM | 6.3 µM | 70% | – | – | – | –
C=C(NNC(=S)Nc1c(C)cccc1C)c1cc2ccccc2o1 [SACC-0037245] | < 0.0285 µM | 0.605 µM | 63% | *** (molecules which are either off-target or of low activity (<25 μM)) | 5.78 µM | 4.43 µM | – | – | – | – | –
O=C(O)COc1ccccn1 [SACC-0126930] | 0.761 µM | < 0.0285 µM | – | *** (molecules which are either off-target or of low activity (<25 μM)) | < 0.0285 µM | > 25 µM | 133% | – | – | – | –
COc1ccc(C=Nn2c(C(F)(F)F)n[nH]c2=S)cc1 [SACC-0087120] | – | – | – | – | – | – | – | 3.16 µM | > 25 µM | 1.11 µM | < 0.0285 µM
N#CC(=C(O)c1ccc(-c2ccc(Cl)cc2Cl)o1)c1nc2ccccc2c(=O)[nH]1 [SACC-0112961] | – | – | – | – | – | – | – | 0.243 µM | > 25 µM | > 25 µM | < 0.0285 µM
O=C(c1ccco1)N1CCN(c2cccc3scc(-c4cccs4)c23)CC1 [SACC-0117388] | – | – | – | – | – | – | – | 1.78 µM | 8.39 µM | 0.124 µM | 13.2 µM
Cc1nc(C)c(C(=O)N(Cc2ccco2)C2CCN(c3ccc4c(c3)OCO4)CC2)s1 [SACC-0040154] | 0.12 µM | 1.24 µM | – | *** (molecules which are either off-target or of low activity (<25 μM)) | 13.2 µM | 3.09 µM | 81% | – | – | – | –
Cc1n[nH]c(C)c1N1C(=O)c2cccc3c(N4CCCCCC4)ccc(c23)C1=O [SACC-0027895] | > 25 µM | > 25 µM | – | *** (molecules which are either off-target or of low activity (<25 μM)) | > 25 µM | > 25 µM | 84% | – | – | – | –
CN1c2ccccc2Oc2nnc(Cl)cc21 [SACC-0075838] | > 25 µM | > 25 µM | – | *** (molecules which are either off-target or of low activity (<25 μM)) | 4.37 µM | 0.0845 µM | 143% | – | – | – | –
CN1/C(=C/C=C/c2ccc3ccccc3[n+]2C)C=Cc2ccccc21 [SACC-0072383] | – | – | – | – | – | – | – | 0.294 µM | > 25 µM | 0.326 µM | 0.501 µM
Clc1ccc(-c2csc3ncnc(N4CCN(c5ccccn5)CC4)c23)cc1 [SACC-0064924] | – | – | – | – | – | – | – | 11.9 µM | > 25 µM | 17.3 µM | < 0.0285 µM
COc1cc2c(cc1OC)CN(c1ncnc3scc(-c4ccc(Cl)cc4)c13)CC2 [SACC-0095849] | – | – | – | – | – | – | – | 0.393 µM | 0.914 µM | > 25 µM | 8.47 µM
CCC(CO)Nc1nc(CN2CCCCC2)nc2scc(-c3ccccc3)c12 (stereo not shown) [SACC-0046099] | – | – | – | – | – | – | – | 3.58 µM | 2.45 µM | > 25 µM | 8.31 µM
S=C(NCc1ccccc1)NN=C1CCC(c2ccccc2)CC1 (stereo not shown) [SACC-0131532] | – | – | – | – | – | – | – | > 25 µM | > 25 µM | 16.6 µM | 1.41 µM
c1ccc(-c2csc3ncnc(N4CCCC4c4cccnc4)c23)cc1 (stereo not shown) [SACC-0011206] | – | – | – | – | – | – | – | 17.5 µM | 0.985 µM | > 25 µM | 6.54 µM
O=[N+]([O-])c1ccc2nc(Nc3ccc(Br)cc3)c(Nc3ccc(Br)cc3)nc2c1 [SACC-0005102] | – | – | – | – | – | – | – | 0.485 µM | 0.177 µM | 1.08 µM | 0.0832 µM
